Our source for the IC50 values is ChEMBL document CHEMBL1147534, “Examination of the 1,4-disubstituted azetidinone ring system as a template for combretastatin A-4 conformationally restricted analogue design” (Bioorg Med Chem Lett, 2004).

For one experiment, the system named is IMR-32. The experiment in a line: In vitro cytotoxicity against human cancerous neuroblastoma cells (IMR-32). The experiment is classed as functional, cell-based.
The next experiment has as its system HeLa. The experiment in a line: In vitro cytotoxicity against human cervix adenocarcinoma (HeLa) tumor cell line. Type of experiment: functional, cell-based.
The next experiment concerns MOLT-4. The experiment in a line: In vitro cytotoxicity against human leukemia (MOLT-4) cell line. Type of experiment: functional, cell-based.
In a further experiment the test system is T98G. The experiment in a line: In vitro cytotoxicity against human glioblastoma (T-98G) tumor cell line. The experiment is classed as functional, cell-based.
The next experiment concerns DLD-1. The experiment in a line: In vitro cytotoxicity against human colon adenocarcinoma (DLD-1) tumor cell line. The experiment is classed as functional, cell-based.
The next experiment concerns ACHN. The experiment can be described thus: In vitro cytotoxicity against human renal adenocarcinoma (ACHN) tumor cell line. Type of experiment: functional, cell-based.
Another experiment relates to DU-145. The experiment in a line: In vitro cytotoxicity against human Prostate carcinoma (DU145) tumor cell line. Type of experiment: functional, cell-based.
The subject of the next experiment is HCT-116. The experiment in a line: In vitro cytotoxicity against human colon carcinoma (HCT116) tumor cell line. Type of experiment: functional, cell-based.
In experiment [1] the test system is MCF7. The experiment in a line: In vitro cytotoxicity against human breast carcinoma (MCF-7) tumor cell line. Type of experiment: functional, cell-based.
Another experiment relates to CFPAC-1. The experiment in a line: In vitro cytotoxicity against human pancreatic cancer (CFPAC-1) tumor cell line. Type of experiment: functional, cell-based.
The subject of another experiment is NCI-H69. The experiment can be described thus: In vitro cytotoxicity against human cancerous cells (NCI-H69) was determined. Type of experiment: functional, cell-based.
The test system of a further experiment is NCI-H460. The experiment in a line: In vitro cytotoxicity against human lung carcinoma (NCI-H460) tumor cell line. Type of experiment: functional, cell-based.
The test system of another experiment is CHO-K1. The experiment can be described thus: In vitro cytotoxicity against chinese hamster ovary (CHO-K1) tumor cell line. The experiment is classed as functional, cell-based, Cricetulus griseus.
Experiment [2] relates to MCF7. The experiment can be described thus: In vitro cytotoxicity against human cancerous cells (MCF-7) was determined. Type of experiment: functional, cell-based.
The test system of another experiment is AR-42J cell line. The experiment in a line: In vitro cytotoxicity against rat pancreatic (AR-42J) tumor cell line. Type of experiment: functional, cell-based.

SMILES strings stand for the structures. A value given as a limit tells only on which side of the number the result lay.

By IC50 is commonly meant the concentration at which inhibition is half-maximal. `COc1ccc(C2C(O)C(=O)N2c2cc(OC)c(OC)c(OC)c2)cn1` (configuration not stated) displayed an IC50 in the experiment on IMR-32 (Homo sapiens, IMR-32) above 1000 nM.

On to `COc1cc(N2C(=O)C(O)C2c2ccc([N+](=O)[O-])o2)cc(OC)c1OC` (configuration not stated), for which, in the experiment on IMR-32 (Homo sapiens, IMR-32), the IC50 is above 1000 nM.

`COc1ccc(C2C(O)C(=O)N2c2cc(OC)c(OC)c(OC)c2)cc1N` (configuration not stated): the 50% inhibitory concentration (IC50) worked out at 63.9 nM with HeLa; 71.7 nM in the experiment with MOLT-4; 109 nM in the experiment on T98G; 130 nM in the experiment on DLD-1; 91.2 nM with ACHN; 37 nM with IMR-32 (Homo sapiens, IMR-32). Further, the IC50 was determined as 38.3 nM with IMR-32 (imr-32); 380 nM in the experiment on DU-145; 140 nM with HCT-116; 55 nM in the experiment with MCF7 [1]; 50.2 nM with CFPAC-1; 25 nM with NCI-H69. The 50% inhibitory concentration (IC50) in the experiment with NCI-H460 turned out to be 184 nM; in the experiment on CHO-K1 (Cricetulus griseus, CHO-K1), 544 nM; with CHO-K1 (cho-k1) it was 411 nM; in the experiment on MCF7 [2], 81 nM; in the experiment on AR-42J cell line it was 62.1 nM.

In the case of `COc1cc(N2C(=O)C(OC)C2c2ccc3c(c2)OCO3)cc(OC)c1OC` (configuration not stated), in the experiment with IMR-32 (Homo sapiens, IMR-32), the IC50 is above 1000 nM.

Compound `COc1ccc(N2C(=O)C(OC(C)=O)C2c2cc(OC)c(OC)c(OC)c2)cc1` (configuration not stated) registered an IC50 with IMR-32 (Homo sapiens, IMR-32) above 1000 nM.

Turning to `COc1ccc(N2C(=O)C(O)C2c2cc(OC)c(OC)c(OC)c2)cc1` (configuration not stated), the IC50 in the experiment on IMR-32 (Homo sapiens, IMR-32) was above 1000 nM.

As to `COc1cc(C2C(OC(C)=O)C(=O)N2c2ccc3c(c2)OCO3)cc(OC)c1OC` (configuration not stated), the IC50 in the experiment on HeLa, in the experiment on MOLT-4, with T98G, with DLD-1, with ACHN and in the experiment with IMR-32 (imr-32) was above 10000 nM in each case. The IC50 is above 10000 nM in the experiment with DU-145; above 10000 nM in the experiment with HCT-116; above 10000 nM in the experiment with MCF7 [1]; above 10000 nM in the experiment on CFPAC-1; above 10000 nM with NCI-H460; above 10000 nM in the experiment on CHO-K1 (Cricetulus griseus, CHO-K1). The IC50 with AR-42J cell line is above 10000 nM.

The compound `COc1cc(N2C(=O)C(OC(C)=O)C2c2ccc([N+](=O)[O-])o2)cc(OC)c1OC` (configuration not stated) showed an IC50 in the experiment on IMR-32 (Homo sapiens, IMR-32) of 811 nM.

In the case of `COc1ccc(C2C(O)C(=O)N2c2cc(OC)c(OC)c(OC)c2)cc1` (configuration not stated), the IC50 in the experiment with IMR-32 (Homo sapiens, IMR-32) is 33 nM; in the experiment on NCI-H69 it was 47 nM; with CHO-K1 (Cricetulus griseus, CHO-K1) it was 509 nM; in the experiment with MCF7 [2] it was 62 nM.

The compound `COc1cc(N2C(=O)C(OC(C)=O)C2c2ccc(N(C)C)cc2)cc(OC)c1OC` (configuration not stated) displayed an IC50 in the experiment on IMR-32 (Homo sapiens, IMR-32) of 520 nM.

Turning to `COc1ccc(C2C(O)C(=O)N2c2cc(OC)c(OC)c(OC)c2)cc1[N+](=O)[O-]` (configuration not stated), the half-maximal inhibitory concentration (IC50) with HeLa amounted to 40 nM; in the experiment on MOLT-4, 74 nM; in the experiment with T98G, 49.8 nM; in the experiment with DLD-1, 59.1 nM; in the experiment on ACHN it was 29.2 nM; with IMR-32 (Homo sapiens, IMR-32), 38 nM. Also, the IC50 in the experiment with IMR-32 (imr-32) is 41.4 nM; in the experiment with DU-145, 91.9 nM; with HCT-116, 68.8 nM; in the experiment with MCF7 [1] it was 37.1 nM; with CFPAC-1 it was 42.1 nM; with NCI-H69 it was 74 nM. Moreover, the IC50 with NCI-H460 stood at 425 nM; in the experiment with CHO-K1 (Cricetulus griseus, CHO-K1), 236 nM; in the experiment on CHO-K1 (cho-k1), 416 nM; with MCF7 [2], 97 nM; in the experiment on AR-42J cell line, 212 nM.

For the compound `COc1ccc(C2C(OC(C)=O)C(=O)N2c2cc(OC)c(OC)c(OC)c2)cc1` (configuration not stated), half-maximal inhibition in the experiment on IMR-32 (Homo sapiens, IMR-32) (IC50) was put at 251 nM.

Compound `COc1ccc2cc(C3C(OC(C)=O)C(=O)N3c3cc(OC)c(OC)c(OC)c3)ccc2c1` (configuration not stated) had an IC50 in the experiment with IMR-32 (Homo sapiens, IMR-32) above 1000 nM.

Consider `COc1ccc(C2C(OC(C)=O)C(=O)N2c2cc(OC)c(OC)c(OC)c2)cn1` (configuration not stated), for which the IC50 in the experiment with IMR-32 (Homo sapiens, IMR-32) is above 1000 nM.

Take `COc1cc(N2C(=O)C(OC(C)=O)C2c2ccc3c(c2)OCO3)cc(OC)c1OC` (configuration not stated): inhibition in the experiment on IMR-32 (Homo sapiens, IMR-32) was half-maximal at 910 nM (IC50).

Consider `COc1ccc(C2C(OC(C)=O)C(=O)N2c2cc(OC)c(OC)c(OC)c2)cc1[N+](=O)[O-]` (configuration not stated), for which the IC50 in the experiment with HeLa turned out to be 202 nM; in the experiment with MOLT-4 it was 350 nM; in the experiment on T98G it was 144 nM; in the experiment on DLD-1, 326 nM; in the experiment on ACHN, 595 nM; with IMR-32 (Homo sapiens, IMR-32) it was 123 nM. In addition, the IC50 in the experiment with DU-145 was 479 nM; in the experiment with HCT-116 it was 526 nM; with MCF7 [1] it was 105 nM; in the experiment on CFPAC-1 it was 197 nM; with NCI-H460, 393 nM; in the experiment on CHO-K1 (Cricetulus griseus, CHO-K1), 473 nM. The IC50 in the experiment on AR-42J cell line was found to be 582 nM.

On to `COc1ccc(C2C(OC(C)=O)C(=O)N2c2cc(OC)c(OC)c(OC)c2)cc1N` (configuration not stated), for which the IC50 in the experiment with HeLa was determined as 262 nM; in the experiment with MOLT-4, 372 nM; with T98G, 145 nM; with DLD-1, 394 nM; in the experiment with ACHN, 150 nM; in the experiment on IMR-32 (Homo sapiens, IMR-32) it was 73.1 nM. Also, the IC50 with DU-145 came to 430 nM; in the experiment on HCT-116, 368 nM; in the experiment on MCF7 [1], 70.5 nM; with CFPAC-1, 204 nM; in the experiment with NCI-H69 it was 41 nM; in the experiment on NCI-H460, 449 nM. Also, the IC50 was determined as 462 nM in the experiment with CHO-K1 (Cricetulus griseus, CHO-K1); 509 nM with CHO-K1 (cho-k1); 200 nM in the experiment with MCF7 [2]; 219 nM in the experiment on AR-42J cell line.

On to `COc1cc(C2C(O)C(=O)N2c2ccc3c(c2)OCO3)cc(OC)c1OC` (configuration not stated), for which the IC50 in the experiment with IMR-32 (Homo sapiens, IMR-32) is above 1000 nM.

Turning to `COc1ccc(C2C(OC)C(=O)N2c2cc(OC)c(OC)c(OC)c2)cc1[N+](=O)[O-]` (configuration not stated), the IC50 with HeLa is above 10000 nM; with MOLT-4 it was above 10000 nM; in the experiment with T98G it was above 5000 nM; in the experiment with DLD-1, above 10000 nM; with ACHN it was above 10000 nM; in the experiment with IMR-32 (imr-32), above 10000 nM. The IC50 was above 10000 nM in the experiment with DU-145; above 10000 nM in the experiment with HCT-116; above 10000 nM in the experiment with MCF7 [1]; above 10000 nM in the experiment on CFPAC-1; above 10000 nM in the experiment with NCI-H460; above 10000 nM in the experiment on CHO-K1 (Cricetulus griseus, CHO-K1). The compound also had an IC50 in the experiment on AR-42J cell line above 10000 nM.

With `COc1ccc(C2C(OC)C(=O)N2c2cc(OC)c(OC)c(OC)c2)cc1N` (configuration not stated), the IC50 in the experiment with IMR-32 (Homo sapiens, IMR-32) was above 1000 nM.

For `COc1ccc2cc(C3C(O)C(=O)N3c3cc(OC)c(OC)c(OC)c3)ccc2c1` (configuration not stated), half-maximal inhibition in the experiment with IMR-32 (Homo sapiens, IMR-32) (IC50) required 89 nM.

In the experiment with IMR-32 (Homo sapiens, IMR-32), `COc1cc(N2C(=O)C(OC(C)=O)C2c2ccc(N)o2)cc(OC)c1OC` (configuration not stated) registered an IC50 above 1000 nM.

Consider `COc1cc(N2C(=O)C(O)C2c2ccc3c(c2)OCO3)cc(OC)c1OC` (configuration not stated), for which the IC50 in the experiment on HeLa is 546 nM; in the experiment on MOLT-4, 398 nM; in the experiment on T98G it was 800 nM; with DLD-1 it was 905 nM; in the experiment with ACHN, 2120 nM; in the experiment with IMR-32 (Homo sapiens, IMR-32), 473 nM. Besides, the IC50 came to 445 nM in the experiment with IMR-32 (imr-32); 3160 nM with DU-145; 950 nM in the experiment on HCT-116; 544 nM with MCF7 [1]; 885 nM with CFPAC-1; 1440 nM with NCI-H460. In addition, the IC50 with CHO-K1 (Cricetulus griseus, CHO-K1) came to 891 nM; with AR-42J cell line it was 1480 nM.
